Assay results as given in patent publication US20250186379A1, “METHODS AND AGENTS FOR DECREASING INSULIN RESISTANCE” (Whitehead Institute for Biomedical Research, priority 2021, published 2025).
“Also recorded” adds a separate entry of the source. Like-named read-outs stand apart in the source and are kept apart here.

Experiments:
HepG2 cells [1] = assay: Stable isotope tracing for lipogenesis in HepG2 cells; assay type: cell-based, human
Description: To wash out insulin, cells were washed with EMEM (ATCC 30-2003) seven times, including: three quick washes, three 5-minute washes and a long 20 minute-wash in EMEM at 37° C. Cells were then cultured in EMEM supplemented with 1 mM Sodium acetate-^13C2(Sigma Aldrich, 282014) and with either 0 nM insulin or 1 nM insulin for 36 hours. Media was replenished after 24 hours. Cells were then processed for metabolite isolation (see below).
Metabolite isolation from HepG2 cells: cells were washed in ice-cold PBS (Life Technologies, AM9625), 500 μl of cold 80% MeOH (shared by the Metabolite Profiling Core Facility) was added per well of a 6-well plate and the plate was placed at −80° C. for at least 15 minutes. Following the −80 incubation, the plate was scraped on dry ice and the solution was transferred to a 1.5 ml tube and then vortexed for 5 minutes. To remove cellular debris, the samples were centrifuged at maximum speed for 10 minutes at 4° C. and the supernatant was transferred to a new 1.5 mL tube on dry ice. To remove solvents, the samples were lyophilized using Refrigerated CentriVap Benchtop Vacuum Concentrator connected to a CentriVap-105 Cold Trap (Labconco). Metabolite pellets were re-suspended in LC-MS grade water (ThermoFisher) and vortexed for 10 minutes at 4° C. Samples were centrifuged at 16,000 g for 10 minutes at 4° C. and supernatant was moved into LC-MS vials. […]

HepG2 cells [2] = assay: Glucose production in HepG2 cells; assay type: cell-based, human
Description: Insulin sensitive and resistant cells were cultured in EMEM for 30 minutes and then cells were treated with 0, 0.1, 1 and 10 nM insulin in glucose production media, containing DMEM (Thermo Fisher Scientific, A1443001), 15 mM HEPES (Gibco, 15630-080), 1 mM pyruvate (Sigma Aldrich, P5280), 20 mM lactate (Sigma Aldrich, L7022-5G) for 4-5 hours. Media was removed and glucose production was measured using Amplex™ Red Glucose/Glucose oxidase assay kit (Thermo Fisher Scientific, A22189) according to the manufacturer's specifications.
To wash out insulin, cells were washed with EMEM (ATCC 30-2003) seven times, including: three quick washes, three 5-minute washes and a long 20 minute-wash in EMEM at 37° C. Cells were washed with glucose-free RPMI (Gibco, 11879-020) then cultured in glucose-free RPMI for 3 hours. […] Cells were then processed for metabolite isolation (see below).
Metabolite isolation from HepG2 cells: cells were washed in ice-cold PBS (Life Technologies, AM9625), 500 μl of cold 80% MeOH (shared by the Metabolite Profiling Core Facility) was added per well of a 6-well plate and the plate was placed at −80° C. for at least 15 minutes. Following the −80 incubation, the plate was scraped on dry ice and the solution was transferred to a 1.5 ml tube and then vortexed for 5 minutes. […]

insulin receptor (IR) = assay: Immunoblot for IR levels in HepG2 cells; assay type: cell-based, human; conditions: insulin resistant HepG2 cells treated with (RM) or without (R) metformin
Description: Cells were washed with ice-cold PBS and lysed in Cell Lytic M (Sigma-Aldrich C2978) supplemented with protease and phosphatase inhibitors (Sigma Aldrich, 11873580001 and 4906837001) directly on the wells. Lysates were placed into a 1.5 ml tube and mixed at 4° C. for 20 min and then centrifuged at 13,000 rpm for 15 min. Protein concentration was determined using a BCA Protein Assay Kit (Life Technologies, 23250) according to the manufacturer's instructions. Equal amounts of protein (5-50 μg per sample) were separated on 10% or 12% Bis-Tris gels in 5% XT MOPS running buffer (Bio-Rad Laboratories, 1610788) at 100V until dye front reached the end of the gel. Protein was then transferred to a 0.45 μM PVDF membrane (Millipore, IPVH00010) in ice cold transfer buffer (25 mM Tris, 192 mM glycine, 20% methanol) at 300 mA for 1 hour or 250 mA for 2 hours at 4° C. […] Immunoblot quantification was performed using the “analyze gel” tool on Fiji/ImageJ v2.1.0/153c. […]
Cells were washed with ice-cold PBS (Life Technologies, AM9625) and lysed in Cell Lytic M (Sigma Aldrich C2978) supplemented with protease and phosphatase inhibitors (Sigma Aldrich, 11873580001 and 4906837001) directly on the wells. […] Super natant was collected and protein concentration was determined using a BCA Protein Assay Kit (Life Technologies, 23250) according to the manufacturer's instructions. […]

[3] = cited from earlier work
[4] = cells exposed to pathologic levels (3 nM) of insulin for two days

Compound	lipogenesis after insulin stimulation (HepG2 cells [1]; [4])	lipogenesis (HepG2 cells [1]; insulin-sensitive HepG2 cells, 1 nM insulin 36 hours)	glucose production after insulin stimulation (HepG2 cells [2]; [4])	glucose production (HepG2 cells [2]; insulin-sensitive HepG2 cells, acute insulin stimulation (FIGS. 22G-22H))	IR levels (immunoblot for IRb) (insulin receptor (IR))	concentration of metformin in the plasma of T2D patients ([3]; T2D patients (Example 1)) [µM]	concentration of metformin in the plasma of T2D patients ([3]; T2D patients (Example 2, refs 58-60)) [µM]
insulin: insulin (Sigma Aldrich, I9278-5ML) used for acute stimulation and chronic physiological or pathological exposure	unchanged	increased lipogenesis	unchanged	decreased glucose production			
CN(C)C(=N)N=C(N)N [metformin, reference compound]					not due to changes in IR levels; also recorded: does not alter IR protein level in insulin resistant cells	~12.5	~12.5
